Test results as given in ChEMBL document CHEMBL1201862, “PubChem BioAssay data set” (2004).
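In this assay, cells in 96-well plates receive the compound at five concentrations for 48 hours. Endpoints are linearly interpolated between the surrounding concentrations. Here, GI50 denotes the concentration required for 50% inhibition of growth.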 Active and inactive are the calls of the source. Rule as the data show it: active = GI50 up to about 1.1 µM and inactive = higher.

Legend:
Test in all cases: growth of human tumour cells (NCI), 48 h
RXF 631 = test system: RXF 631
SN12C = test system: SN12C
OVCAR-4 = test system: OVCAR-4
UO-31 = test system: UO-31
HCC 2998 = test system: HCC 2998
KM-20L2 = test system: KM-20L2
CCRF-CEM = test system: CCRF-CEM
CAKI-1 = test system: CAKI-1
OVCAR-3 = test system: OVCAR-3
LOX IMVI = test system: LOX IMVI
NCI-H23 = test system: NCI-H23
Malme-3M = test system: Malme-3M
SNB-78 = test system: SNB-78
DLD-1 = test system: DLD-1
LXFL 529 = test system: LXFL 529
NCI-H226 = test system: NCI-H226
A498 = test system: A498
SW-620 = test system: SW-620
SF-268 = test system: SF-268
SK-OV-3 = test system: SK-OV-3
RXF 393 = test system: RXF 393
786-0 = test system: 786-0
A549 = test system: A549
SK-MEL-5 = test system: SK-MEL-5
KM12 = test system: KM12
ACHN = test system: ACHN
IGROV-1 = test system: IGROV-1
HOP-18 = test system: HOP-18
U-251 = test system: U-251
MOLT-4 = test system: MOLT-4
HOP-62 = test system: HOP-62
RPMI-8226 = test system: RPMI-8226
HL-60 = test system: HL-60
M19-MEL = test system: M19-MEL
UACC-62 = test system: UACC-62
HT-29 = test system: HT-29
COLO 205 = test system: COLO 205
SF-539 = test system: SF-539
UACC-257 = test system: UACC-257
HOP-92 = test system: HOP-92
DMS-273 = test system: DMS-273
SK-MEL-2 = test system: SK-MEL-2
M14 = test system: M14
HCT-15 = test system: HCT-15
K562 = test system: K562
SF-295 = test system: SF-295
SNB-75 = test system: SNB-75
XF498 = test system: XF498
OVCAR-5 = test system: OVCAR-5
NCI-H460 = test system: NCI-H460
SK-MEL-28 = test system: SK-MEL-28
TK-10 = test system: TK-10
HCT-116 = test system: HCT-116
NCI-H522 = test system: NCI-H522
SNB-19 = test system: SNB-19
DMS-114 = test system: DMS-114
EKVX = test system: EKVX
SR = test system: SR
OVCAR-8 = test system: OVCAR-8

## CC(C)(C)C(=O)ON1N=NC2C3CC(OCc4ccccc4)(OCc4ccccc4)C(O3)C21 (stereo not drawn)
RXF 631
  GI50: 24.7 µM (inactive)
SN12C
  GI50: 19.3 µM (inactive)
OVCAR-4
  GI50: 22.6 µM (inactive)
UO-31
  GI50: 22.4 µM (inactive)
HCC 2998
  GI50: 14.2 µM (inactive)
KM-20L2
  GI50: 28.4 µM (inactive)
CCRF-CEM
  GI50: 4.4 µM (inactive)
CAKI-1
  GI50: 31 µM (inactive)
OVCAR-3
  GI50: 16.9 µM (inactive)
LOX IMVI
  GI50: 15.4 µM (inactive)
NCI-H23
  GI50: 19.6 µM (inactive)
Malme-3M
  GI50: 16.3 µM (inactive)
SNB-78
  GI50: 26 µM (inactive)
DLD-1
  GI50: 15.6 µM (inactive)
LXFL 529
  GI50: 11.1 µM (inactive)
NCI-H226
  GI50: 17.7 µM (inactive)
A498
  GI50: 35.7 µM (inactive)
SW-620
  GI50: 14.9 µM (inactive)
SF-268
  GI50: 29.1 µM (inactive)
SK-OV-3
  GI50: 53.1 µM (inactive)
RXF 393
  GI50: 15.8 µM (inactive)
786-0
  GI50: 18.5 µM (inactive)
A549
  GI50: 32.7 µM (inactive)
SK-MEL-5
  GI50: 15.6 µM (inactive)
KM12
  GI50: 23.6 µM (inactive)
ACHN
  GI50: 27.7 µM (inactive)
IGROV-1
  GI50: 35.1 µM (inactive)
HOP-18
  GI50: 24.2 µM (inactive)
U-251
  GI50: 16.9 µM (inactive)
MOLT-4
  GI50: 3.41 µM (inactive)
HOP-62
  GI50: 28.3 µM (inactive)
RPMI-8226
  GI50: 7.38 µM (inactive)
HL-60
  GI50: 3.79 µM (inactive)
M19-MEL
  GI50: 15.8 µM (inactive)
UACC-62
  GI50: 18.5 µM (inactive)
HT-29
  GI50: 22.3 µM (inactive)
COLO 205
  GI50: 18.7 µM (inactive)
SF-539
  GI50: 16.3 µM (inactive)
UACC-257
  GI50: 13.7 µM (inactive)
HOP-92
  GI50: 12 µM (inactive)
DMS-273
  GI50: 22.3 µM (inactive)
SK-MEL-2
  GI50: 19.1 µM (inactive)
M14
  GI50: 26.4 µM (inactive)
HCT-15
  GI50: 20.1 µM
K562
  GI50: 11.7 µM (inactive)
SF-295
  GI50: 22.1 µM (inactive)
SNB-75
  GI50: 24.1 µM (inactive)
XF498
  GI50: 18.9 µM (inactive)
OVCAR-5
  GI50: 33.6 µM (inactive)
NCI-H460
  GI50: 24 µM (inactive)
SK-MEL-28
  GI50: 19.1 µM (inactive)

## COC(=O)[C@@H]1C(=O)O[C@@H](c2ccc(OC)c(OC)c2OC)[C@@H]1C(=O)OC.COC(=O)[C@H]1C(=O)O[C@@H](c2ccc(OC)c(OC)c2OC)[C@@H]1C(=O)OC
RXF 631
  GI50: > 100 µM (inactive)
SN12C
  GI50: > 100 µM (inactive)
OVCAR-4
  GI50: > 100 µM (inactive)
UO-31
  GI50: > 100 µM (inactive)
HCC 2998
  GI50: > 100 µM (inactive)
KM-20L2
  GI50: > 100 µM (inactive)
CCRF-CEM
  GI50: > 100 µM (inactive)
CAKI-1
  GI50: > 100 µM (inactive)
OVCAR-3
  GI50: > 100 µM (inactive)
LOX IMVI
  GI50: > 100 µM (inactive)
NCI-H23
  GI50: > 100 µM (inactive)
Malme-3M
  GI50: > 100 µM (inactive)
SNB-78
  GI50: > 100 µM (inactive)
DLD-1
  GI50: > 100 µM (inactive)
LXFL 529
  GI50: > 100 µM (inactive)
NCI-H226
  GI50: > 100 µM (inactive)
TK-10
  GI50: > 100 µM (inactive)
A498
  GI50: > 100 µM (inactive)
SW-620
  GI50: > 100 µM (inactive)
SF-268
  GI50: > 100 µM (inactive)
SK-OV-3
  GI50: > 100 µM (inactive)
RXF 393
  GI50: > 100 µM (inactive)
786-0
  GI50: > 100 µM (inactive)
A549
  GI50: > 100 µM (inactive)
SK-MEL-5
  GI50: > 100 µM (inactive)
KM12
  GI50: > 100 µM (inactive)
HCT-116
  GI50: > 100 µM (inactive)
ACHN
  GI50: > 100 µM (inactive)
IGROV-1
  GI50: > 100 µM (inactive)
U-251
  GI50: > 100 µM (inactive)
MOLT-4
  GI50: > 100 µM (inactive)
NCI-H522
  GI50: > 100 µM (inactive)
HOP-62
  GI50: > 100 µM (inactive)
RPMI-8226
  GI50: > 100 µM (inactive)
HL-60
  GI50: > 100 µM (inactive)
M19-MEL
  GI50: > 100 µM (inactive)
UACC-62
  GI50: > 100 µM (inactive)
HT-29
  GI50: > 100 µM (inactive)
COLO 205
  GI50: > 100 µM (inactive)
SF-539
  GI50: > 100 µM (inactive)
UACC-257
  GI50: > 100 µM (inactive)
HOP-92
  GI50: > 100 µM (inactive)
SNB-19
  GI50: > 100 µM (inactive)
DMS-273
  GI50: > 100 µM (inactive)
DMS-114
  GI50: > 100 µM (inactive)
M14
  GI50: > 100 µM (inactive)
EKVX
  GI50: > 100 µM (inactive)
HCT-15
  GI50: > 100 µM
K562
  GI50: > 100 µM (inactive)
SR
  GI50: > 100 µM (inactive)
SF-295
  GI50: > 100 µM (inactive)
SNB-75
  GI50: > 100 µM (inactive)
XF498
  GI50: > 100 µM (inactive)
OVCAR-5
  GI50: > 100 µM (inactive)
NCI-H460
  GI50: > 100 µM (inactive)
OVCAR-8
  GI50: > 100 µM (inactive)
SK-MEL-28
  GI50: > 100 µM (inactive)
